Legend:
Smn protein = Smn protein assay (HTRF) in cultured cells (SMA patient fibroblasts GM03813); format: cell-based, human; settings: 48 hours; for EC1.5x for Smn protein expression: SMA patient fibroblast cells (GM03813), HTRF, 7-point concentration data, concentration producing 1.5 times Smn protein vs DMSO vehicle control; for maximum fold (Fold) increase of Smn protein: SMA patient fibroblast cells, 7-point concentration curve, relative to vehicle control
Summary of the method: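 SMA patient fibroblasts (GM03813) were treated 48 h at 37° C with a 7-point, 3.16-fold compound series in triplicate, then lysed in RIPA. Smn was read by HTRF (anti-SMN d2/kryptate, 665/620 nm ratio). ΔF versus blank was divided by vehicle ΔF to give fold Smn increase.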

[1] = test system: SMN2 minigene mRNA (SMN2-A minigene construct); experiment: SMN2 minigene mRNA splicing RT-qPCR assay in cultured cells; format: cell-based, human; settings: Homo sapiens, HEK293-H; HEK293H cells stably transfected with SMN2-A minigene, 24 hours, 7-point concentration data; concentration giving 1.5-fold SMN2 full length mRNA relative to vehicle-treated cells; read-out: EC1.5x for production of full length SMN2 mRNA
Summary of the method: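 Full-length SMN2 minigene mRNA, measured by exon 7/luciferase-specific RT-qPCR that excludes endogenous SMN1/SMN2, was normalized to GAPDH and expressed relative to vehicle-treated cells via modified ΔΔCt. Stably transfected HEK293H cells received compound (7-point, 3.16-fold series, duplicates) for 24 h at 37 °C.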

| SMILES | EC1.5x for Smn protein expression (Smn protein) | maximum fold (Fold) increase of Smn protein (Smn protein) | EC (1.5-fold) [1] [µM] | melting point [°C] |
| --- | --- | --- | --- | --- |
| CCN1CCCN(c2ccc3cc(-c4cn5cc(C)cc(F)c5n4)c(=O)oc3n2)CC1 [Cpd 138, 7-(4-ethyl-1,4-diazepan-1-yl)-3-(8-fluoro-6-methylimidazo[1,2-a]pyridin-2-yl)-2H-pyrano[2,3-b]pyridin-2-one] | **** (an EC1.5×≦0.3 μM is indicated by four stars (****)) | **** (a fold increase between >1.5 and ≦1.65 is indicated by four stars (****)) | ≤ 0.1 | 195 to 200 |
| CCN1CCCN(c2ccc3cc(-c4cn5cccc(F)c5n4)c(=O)oc3n2)CC1 [Cpd 139, 7-(4-ethyl-1,4-diazepan-1-yl)-3-(8-fluoroimidazo[1,2-a]pyridin-2-yl)-2H-pyrano[2,3-b]pyridin-2-one] | **** (an EC1.5×≦0.3 μM is indicated by four stars (****)) | **** (a fold increase between >1.5 and ≦1.65 is indicated by four stars (****)) | ≤ 0.1 | 189 to 191 |
| CCN1CCN(c2ccc3cc(-c4cn5cc(C)nc(C)c5n4)c(=O)oc3n2)CC1 [Cpd 140, 3-(6,8-dimethylimidazo[1,2-a]pyrazin-2-yl)-7-(4-ethylpiperazin-1-yl)-2H-pyrano[2,3-b]pyridin-2-one] | ** (an EC1.5× between >1 and ≦3 μM is indicated by two stars (**)) | **** (a fold increase between >1.5 and ≦1.65 is indicated by four stars (****)) | 0.3 to 1 | 238 to 241 |
| CCN1CCCN(c2ccc3cc(-c4cn5cccc(Cl)c5n4)c(=O)oc3n2)CC1 [Cpd 141, 3-(8-chloroimidazo[1,2-a]pyridin-2-yl)-7-(4-ethyl-1,4-diazepan-1-yl)-2H-pyrano[2,3-b]pyridin-2-one] | **** (an EC1.5×≦0.3 μM is indicated by four stars (****)) | **** (a fold increase between >1.5 and ≦1.65 is indicated by four stars (****)) | ≤ 0.1 | 201 to 204 |
| CCN1CCCN(c2ccc3cc(-c4cn5cc(C)ncc5n4)c(=O)oc3n2)CC1 [Cpd 142, 7-(4-ethyl-1,4-diazepan-1-yl)-3-(6-methylimidazo[1,2-a]pyrazin-2-yl)-2H-pyrano[2,3-b]pyridin-2-one] | *** (an EC1.5× between >0.3 μM and ≦1 μM is indicated by three stars (***)) | **** (a fold increase between >1.5 and ≦1.65 is indicated by four stars (****)) | ≤ 0.1 | 217 to 221 |
| CCN1CCN(c2ccc3cc(-c4cn5cc(C)ncc5n4)c(=O)oc3n2)C[C@@H]1C [Cpd 143, 7-[(3S)-4-ethyl-3-methylpiperazin-1-yl]-3-(6methylimidazo-[1,2-a]pyrazin-2-yl)-2H-pyrano[2,3-b]pyridin-2-one] | *** (an EC1.5× between >0.3 μM and ≦1 μM is indicated by three stars (***)) | **** (a fold increase between >1.5 and ≦1.65 is indicated by four stars (****)) | ≤ 0.1 | 252 to 256 |
| CCN1CCN(c2ccc3cc(-c4cn5cc(C)nc(C)c5n4)c(=O)oc3n2)C[C@@H]1C [Cpd 144, 3-(6,8-dimethylimidazo[1,2-a]pyrazin-2-yl)-7-[(3S)-4-ethyl-3-methylpiperazin-1-yl]-2H-pyrano[2,3-b]pyridin-2-one] | **** (an EC1.5×≦0.3 μM is indicated by four stars (****)) | **** (a fold increase between >1.5 and ≦1.65 is indicated by four stars (****)) | ≤ 0.1 | 184 to 190 |
| CCN1CCN(c2ccc3cc(-c4cn5cccc(Cl)c5n4)c(=O)oc3n2)C[C@@H]1C [Cpd 145, 3-(8-chloroimidazo[1,2-a]pyridin-2-yl)-7-[(3S)-4-ethyl-3-methylpiperazin-1-yl]-2H-pyrano[2,3-b]pyridin-2-one] | **** (an EC1.5×≦0.3 μM is indicated by four stars (****)) | **** (a fold increase between >1.5 and ≦1.65 is indicated by four stars (****)) | ≤ 0.1 | 196 to 199 |

— patent publication US9371336B2, “Compounds for treating spinal muscular atrophy” (PTC Therapeutics Inc., priority 2012, dated 2016)
